{"source": "patent US10988477B2", "about": "(Merck Patent GmbH, priority 2018, dated 2021)", "key": {"GCN2 kinase": {"target": "GCN2 kinase (Homo sapiens, UniProt Q9P2K8)", "sequence (Q9P2K8 whole entry)": "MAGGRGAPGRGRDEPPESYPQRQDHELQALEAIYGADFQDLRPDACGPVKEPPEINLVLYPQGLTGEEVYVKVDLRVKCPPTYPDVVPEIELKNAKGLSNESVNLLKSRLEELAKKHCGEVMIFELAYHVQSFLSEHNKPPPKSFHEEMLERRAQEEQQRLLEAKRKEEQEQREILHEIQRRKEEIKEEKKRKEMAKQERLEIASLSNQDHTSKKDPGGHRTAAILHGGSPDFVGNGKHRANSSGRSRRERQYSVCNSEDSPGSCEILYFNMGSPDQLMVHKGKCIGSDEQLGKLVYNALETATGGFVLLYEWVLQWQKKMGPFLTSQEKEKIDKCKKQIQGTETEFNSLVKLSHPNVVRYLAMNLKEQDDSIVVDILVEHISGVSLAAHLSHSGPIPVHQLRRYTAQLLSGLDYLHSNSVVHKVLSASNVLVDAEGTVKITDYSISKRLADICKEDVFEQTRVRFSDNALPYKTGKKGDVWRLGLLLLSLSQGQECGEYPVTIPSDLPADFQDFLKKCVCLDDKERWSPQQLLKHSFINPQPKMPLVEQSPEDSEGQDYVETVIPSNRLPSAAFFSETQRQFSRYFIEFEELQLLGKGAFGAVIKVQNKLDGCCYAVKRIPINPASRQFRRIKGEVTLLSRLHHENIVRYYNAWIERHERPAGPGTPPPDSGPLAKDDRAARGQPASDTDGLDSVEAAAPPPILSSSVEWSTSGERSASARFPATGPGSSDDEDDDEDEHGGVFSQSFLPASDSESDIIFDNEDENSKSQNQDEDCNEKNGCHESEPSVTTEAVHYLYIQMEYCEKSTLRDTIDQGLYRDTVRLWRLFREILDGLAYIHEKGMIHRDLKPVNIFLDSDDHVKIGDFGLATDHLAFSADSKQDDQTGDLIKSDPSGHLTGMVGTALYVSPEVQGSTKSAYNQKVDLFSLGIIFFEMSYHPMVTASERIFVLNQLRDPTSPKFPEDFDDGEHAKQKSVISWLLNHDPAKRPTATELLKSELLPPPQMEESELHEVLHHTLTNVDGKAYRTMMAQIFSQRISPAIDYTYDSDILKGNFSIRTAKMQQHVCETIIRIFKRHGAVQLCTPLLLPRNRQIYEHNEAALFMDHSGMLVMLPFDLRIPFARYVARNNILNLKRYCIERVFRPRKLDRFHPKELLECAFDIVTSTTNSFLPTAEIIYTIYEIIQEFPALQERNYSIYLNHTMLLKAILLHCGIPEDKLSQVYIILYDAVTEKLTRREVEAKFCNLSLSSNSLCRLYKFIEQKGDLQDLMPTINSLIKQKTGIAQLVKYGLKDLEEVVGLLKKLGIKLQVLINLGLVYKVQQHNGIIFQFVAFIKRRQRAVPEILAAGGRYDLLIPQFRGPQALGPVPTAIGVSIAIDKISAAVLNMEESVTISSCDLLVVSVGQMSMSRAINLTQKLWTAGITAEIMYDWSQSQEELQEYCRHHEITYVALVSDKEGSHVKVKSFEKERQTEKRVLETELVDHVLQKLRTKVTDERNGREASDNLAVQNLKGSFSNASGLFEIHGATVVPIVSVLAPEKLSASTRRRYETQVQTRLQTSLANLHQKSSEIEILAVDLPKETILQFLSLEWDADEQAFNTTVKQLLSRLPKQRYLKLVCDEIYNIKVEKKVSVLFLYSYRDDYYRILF", "test": "GCN2 enzyme inhibition assay (Transcreener ADP2 fluorescence polarization)", "format": "biochemical", "details": "280 μM ATP", "method_in_brief": "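FP detection of ADP (antibody plus Alexa633 tracer) after a 1 h, 25 °C kinase reaction. Enzyme 4 nM, ATP 280 μM, (RS)7 peptide 200 μM, Tris pH 7.5 buffer with MgCl2 and DTT. Percent inhibition fitted by non-linear tight-binding algorithm for IC50 and Ki(app).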"}, "[1]": {"target": "intracellular GCN2 (phosphorylation of the GCN2 substrate eIF2α) (Homo sapiens, UniProt Q9P2K8)", "sequence (Q9P2K8 whole entry)": "as above", "test": "GCN2 cellular inhibition assay (AlphaScreen SureFire P-eIF2α Ser51, borrelidin-treated U2OS cells)", "format": "cell-based", "method_in_brief": "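Read-out: AlphaScreen SureFire phospho-eIF2α (Ser51) signal in U2OS lysates. Cells get 4-fold compound dilutions (top 40 μM final) plus 10 μM borrelidin, 1 h, 37 °C. Percent inhibition is relative to borrelidin-alone controls.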"}, "[2]": {"details": "Enzyme activity for compounds of Formula IV, Ki(app), 25° C."}, "[3]": {"details": "compounds of Formula IV, biomarker assay, phosphorylated eIF2α Ser51 in borrelidin-treated U2OS cells"}, "[4]": {"details": "compounds of Formula II, 4 nM GCN2 kinase"}, "[5]": {"details": "compounds of Formula II, biomarker assay, phosphorylated eIF2α Ser51 in borrelidin-treated U2OS cells"}}, "note": "pIC50, pKi: −log10 of the molar value. Read-outs that look alike come from different tables or passages of the source."}
{"smiles": "CC1C(c2cn[nH]c2)OCCN1c1ccnc(-c2cnc3cnc(C(F)(F)F)cn23)n1", "note": "(single isomer, unassigned) [IV-318, 3-Methyl-2-(1H-pyrazol-4-yl)-4-(2-(6-(trifluoromethyl)imidazo[1,2-a]pyrazin-3-yl)pyrimidin-4-yl)morpholine]", "values": [{"measurement": "pKi", "setting": "GCN2 kinase; [2]", "value": "> 8.00"}, {"measurement": "pIC50", "setting": "[1]; [3]", "value": "> 6.30"}]}
{"smiles": "O=C1CCN(c2cc(-c3cnn4ccc(C(F)(F)F)nc34)ncn2)CCN1", "note": "[III-3, 1-[6-[5-(Trifluoromethyl)pyrazolo[1,5-a]pyrimidin-3-yl]pyrimidin-4-yl]-1,4-diazepan-5-one]", "values": [{"measurement": "pKi", "setting": "GCN2 kinase; compounds of Formula III, 4 nM GCN2 kinase", "value": "6.00 to 8.00"}, {"measurement": "pIC50", "setting": "[1]; compounds of Formula III, U2OS cells, 10 μM borrelidin, 1 h, read-out: GCN2 Biomarker (IC50)", "value": "< 5.30"}]}
{"smiles": "FC(F)(F)c1cn2c(-c3nccc(N4CCC(Oc5cn[nH]c5)C4)n3)cnc2cn1", "note": "(stereo not shown) [IV-695, 3-(4-(3-((1H-Pyrazol-4-yl)oxy)pyrrolidin-1-yl)pyrimidin-2-yl)-6-(trifluoromethyl)imidazo[1,2-a]pyrazine]", "values": [{"measurement": "pKi", "setting": "GCN2 kinase; [2]", "value": "7.00 to 8.00"}, {"measurement": "pIC50", "setting": "[1]; [3]", "value": "< 5.30"}]}
{"smiles": "FC(F)c1ccc2ncc(-c3cc(C4CCCN(C5COC5)C4)ncn3)n2n1", "note": "(single isomer, unassigned) [II-241, 6-(Difluoromethyl)-3-(6-(1-(oxetan-3-yl)piperidin-3-yl)pyrimidin-4-yl)imidazo[1,2-b]pyridazine]", "values": [{"measurement": "pKi", "setting": "GCN2 kinase; [4]", "value": "< 6.00"}, {"measurement": "pIC50", "setting": "[1]; [5]", "value": "< 5.30"}]}
{"smiles": "CC1CN(c2cc(-c3cnc4ccc(C(F)(F)F)nn34)ncn2)C(C)C(c2cn[nH]c2)N1", "note": "(stereo not shown) [II-698]", "values": [{"measurement": "pKi", "setting": "GCN2 kinase; [4]", "value": "> 8.00"}, {"measurement": "pIC50", "setting": "[1]; [5]", "value": "5.30 to 6.30"}]}
{"smiles": "CC1CN(c2ccnc(-c3cnc4cnc(C(F)(F)F)cn34)n2)C(C)C(c2c[nH]c(C(F)(F)F)n2)N1", "note": "(single isomer, unassigned) [IV-673, 3-(4-(2,5-Dimethyl-3-(2-(trifluoromethyl)-1H-imidazol-4-yl)piperazin-1-yl)pyrimidin-2-yl)-6-(trifluoromethyl)imidazo[1,2-a]pyrazine]", "values": [{"measurement": "pKi", "setting": "GCN2 kinase; [2]", "value": "> 8.00"}, {"measurement": "pIC50", "setting": "[1]; [3]", "value": "5.30 to 6.30"}]}
{"smiles": "FC(F)c1ccc2ncc(-c3ccnc(N4CCN5CCNCC5C4)c3)n2n1", "note": "(stereo not shown) [II-38, 2-(4-(6-(Difluoromethyl)imidazo[1,2-b]pyridazin-3-yl)pyridin-2-yl)octahydro-1H-pyrazino[1,2-a]pyrazine]", "values": [{"measurement": "pKi", "setting": "GCN2 kinase; [4]", "value": "6.00 to 8.00"}, {"measurement": "pIC50", "setting": "[1]; [5]", "value": "< 5.30"}]}
{"smiles": "CC1C(CNS(C)(=O)=O)OCCN1c1cc(-c2cnc3ccc(C(F)F)nn23)ncn1", "note": "(single isomer, unassigned) [II-372, N-((4-(6-(6-(Difluoromethyl)imidazo[1,2-b]pyridazin-3-yl)pyrimidin-4-yl)-3-methylmorpholin-2-yl)methyl)methanesulfonamide]", "values": [{"measurement": "pKi", "setting": "GCN2 kinase; [4]", "value": "< 6.00"}, {"measurement": "pIC50", "setting": "[1]; [5]", "value": "< 5.30"}]}
{"smiles": "CS(=O)(=O)NC[C@@H]1CN(c2cc(-c3cnc4ccc(C(F)(F)F)nn34)ncn2)CCO1", "note": "[II-292, (S)—N-((4-(6-(6-(Trifluoromethyl)imidazo[1,2-b]pyridazin-3-yl)pyrimidin-4-yl)morpholin-2-yl)methyl)methanesulfonamide]", "values": [{"measurement": "pKi", "setting": "GCN2 kinase; [4]", "value": "6.00 to 8.00"}, {"measurement": "pIC50", "setting": "[1]; [5]", "value": "5.30 to 6.30"}]}
{"smiles": "CS(=O)(=O)NC1CCCN(c2cc(-c3cnc4ccc(C(F)F)nn34)ncn2)C1", "note": "(stereo not shown) [II-362, N-(1-(6-(6-(Difluoromethyl)imidazo[1,2-b]pyridazin-3-yl)pyrimidin-4-yl)piperidin-3-yl)methanesulfonamide]", "values": [{"measurement": "pKi", "setting": "GCN2 kinase; [4]", "value": "6.00 to 8.00"}, {"measurement": "pIC50", "setting": "[1]; [5]", "value": "5.30 to 6.30"}]}
{"smiles": "OCC1CN(c2cc(-c3cnc4ccc(C(F)F)nn34)ncn2)CC2(COC2)O1", "note": "(stereo not shown) [II-343, (8-(6-(6-(Difluoromethyl)imidazo[1,2-b]pyridazin-3-yl)pyrimidin-4-yl)-2,5-dioxa-8-azaspiro[3.5]nonan-6-yl)methanol]", "values": [{"measurement": "pKi", "setting": "GCN2 kinase; [4]", "value": "6.00 to 8.00"}, {"measurement": "pIC50", "setting": "[1]; [5]", "value": "< 5.30"}]}
{"smiles": "NS(=O)(=O)NCC1CCCN(c2cc(-c3cnc4ccc(C(F)F)nn34)ncn2)C1", "note": "(stereo not shown) [II-202, 1-((1-(6-(6-(Difluoromethyl)imidazo[1,2-b]pyridazin-3-yl)pyrimidin-4-yl)piperidin-3-yl)methyl)sulfuric diamide]", "values": [{"measurement": "pKi", "setting": "GCN2 kinase; [4]", "value": "> 8.00"}, {"measurement": "pIC50", "setting": "[1]; [5]", "value": "> 6.30"}]}
{"smiles": "CC1CN(c2ccnc(-c3cnc4cnc(C(F)(F)F)cn34)n2)C(C)C(c2c[nH]cn2)O1", "note": "(single isomer, unassigned) [IV-639, 2-(1H-Imidazol-4-yl)-3,6-dimethyl-4-(2-(6-(trifluoromethyl)imidazo[1,2-a]pyrazin-3-yl)pyrimidin-4-yl)morpholine]", "values": [{"measurement": "pKi", "setting": "GCN2 kinase; [2]", "value": "> 8.00"}, {"measurement": "pIC50", "setting": "[1]; [3]", "value": "> 6.30"}]}
{"smiles": "CC(C)(O)C1CC(c2cn[nH]c2)CN(c2ccnc(-c3cnc4cnc(C(F)(F)F)cn34)n2)C1", "note": "(single isomer, unassigned) [IV-683, 2-(5-(1H-Pyrazol-4-yl)-1-(2-(6-(trifluoromethyl)imidazo[1,2-a]pyrazin-3-yl)pyrimidin-4-yl)piperidin-3-yl)propan-2-ol]", "values": [{"measurement": "pKi", "setting": "GCN2 kinase; [2]", "value": "7.00 to 8.00"}, {"measurement": "pIC50", "setting": "[1]; [3]", "value": "5.30 to 6.30"}]}
{"smiles": "CC(=O)N1CCN(c2cc(-c3cnc4ccc(C)nn34)ccn2)CC1", "note": "[II-193, 1-(4-(4-(6-Methylimidazo[1,2-b]pyridazin-3-yl)pyridin-2-yl)piperazin-1-yl)ethanone]", "values": [{"measurement": "pKi", "setting": "GCN2 kinase; [4]", "value": "6.00 to 8.00"}, {"measurement": "pIC50", "setting": "[1]; [5]", "value": "< 5.30"}]}
{"smiles": "CC1NCCN(c2cc(-c3cnc4ccc(C(F)(F)F)nn34)ncn2)C1c1cn[nH]c1", "note": "(stereo not shown) [II-707, 3-(6-(3-Methyl-2-(1H-pyrazol-4-yl)piperazin-1-yl)pyrimidin-4-yl)-6-(trifluoromethyl)imidazo[1,2-b]pyridazine]", "values": [{"measurement": "pKi", "setting": "GCN2 kinase; [4]", "value": "6.00 to 8.00"}, {"measurement": "pIC50", "setting": "[1]; [5]", "value": "< 5.30"}]}
{"smiles": "CC(C)(NS(C)(=O)=O)C1CCCN(c2cc(-c3cnc4ccc(C(F)F)nn34)ccn2)C1", "note": "(stereo not shown) [II-114, N-(2-(1-(4-(6-(Difluoromethyl)imidazo[1,2-b]pyridazin-3-yl)pyridin-2-yl)piperidin-3-yl)propan-2-yl)methanesulfonamide]", "values": [{"measurement": "pKi", "setting": "GCN2 kinase; [4]", "value": "6.00 to 8.00"}, {"measurement": "pIC50", "setting": "[1]; [5]", "value": "< 5.30"}]}
{"smiles": "CS(=O)(=O)NCC1CN(c2cc(-c3cnc4ccc(C(F)F)nn34)ccn2)CCN1C1COC1", "note": "(stereo not shown) [II-81, N-((4-(4-(6-(Difluoromethyl)imidazo[1,2-b]pyridazin-3-yl)pyridin-2-yl)-1-(oxetan-3-yl)piperazin-2-yl)methyl)methanesulfonamide]", "values": [{"measurement": "pKi", "setting": "GCN2 kinase; [4]", "value": "6.00 to 8.00"}, {"measurement": "pIC50", "setting": "[1]; [5]", "value": "< 5.30"}]}
{"smiles": "CNc1cc(-c2cnc3ccc(C(F)F)nn23)cc(N2CCO[C@H](CNS(C)(=O)=O)C2)n1", "note": "[II-69, (S)—N-((4-(4-(6-(Difluoromethyl)imidazo[1,2-b]pyridazin-3-yl)-6-(methylamino)pyridin-2-yl)morpholin-2-yl)methyl)methanesulfonamide]", "values": [{"measurement": "pKi", "setting": "GCN2 kinase; [4]", "value": "> 8.00"}, {"measurement": "pIC50", "setting": "[1]; [5]", "value": "> 6.30"}]}
{"smiles": "CNc1cc(-c2cnc3ccc(C(F)F)nn23)cc(N2CCCC(CNS(C)(=O)=O)C2)n1", "note": "(stereo not shown) [II-116, N-((1-(4-(6-(Difluoromethyl)imidazo[1,2-b]pyridazin-3-yl)-6-(methylamino)pyridin-2-yl)piperidin-3-yl)methyl)methanesulfonamide]", "values": [{"measurement": "pKi", "setting": "GCN2 kinase; [4]", "value": "> 8.00"}, {"measurement": "pIC50", "setting": "[1]; [5]", "value": "5.30 to 6.30"}]}
{"smiles": "CC(=O)N1CCN(c2ccnc(-c3cnc4cnc(Cl)cn34)n2)CC1", "note": "[IV-35, 1-(4-(2-(6-Chloroimidazo[1,2-a]pyrazin-3-yl)pyrimidin-4-yl)piperazin-1-yl)ethan-1-one]", "values": [{"measurement": "pKi", "setting": "GCN2 kinase; [2]", "value": "6.00 to 7.00"}, {"measurement": "pIC50", "setting": "[1]; [3]", "value": "< 5.30"}]}
{"smiles": "CC1CN(c2ccnc(-c3cnc4sc(C(F)(F)F)cn34)n2)C(C)C(c2cn[nH]c2)N1", "note": "(stereo not shown) [Compound V-13, 5-[4-[2,5-Dimethyl-3-(1H-pyrazol-4-yl)piperazin-1-yl]pyrimidin-2-yl]-2-(trifluoromethyl)imidazo[2,1-b]thiazole]", "values": [{"measurement": "pKi", "setting": "GCN2 kinase; compounds of Formula V, 4 nM GCN2 kinase", "value": "> 8.00"}, {"measurement": "pIC50", "setting": "[1]; compounds of Formula V, U2OS cells, 10 μM borrelidin, 1 h, read-out: GCN2 Biomarker (IC50)", "value": "> 6.30"}]}
{"smiles": "CN(C1CCCN(c2cc(-c3cnc4ccc(C(F)F)nn34)ncn2)C1)S(C)(=O)=O", "note": "(stereo not shown) [II-455, N-(1-(6-(6-(Difluoromethyl)imidazo[1,2-b]pyridazin-3-yl)pyrimidin-4-yl)piperidin-3-yl)-N-methylmethanesulfonamide]", "values": [{"measurement": "pKi", "setting": "GCN2 kinase; [4]", "value": "6.00 to 8.00"}, {"measurement": "pIC50", "setting": "[1]; [5]", "value": "5.30 to 6.30"}]}
